The first test has as its target Serine/threonine-protein kinase D1 (Homo sapiens) (UniProt Q15139). Nature of the test: PKD1 kinase inhibitors, IC50 values, dose response, biochemical, fluorescence polarization (AID 1408).
Conditions: not given
For orientation: Fluorescence polarisation rises when a labelled molecule tumbles more slowly, as on binding a larger partner.
Sequence of Serine/threonine-protein kinase D1 (Homo sapiens) (Q15139 whole entry, looked up): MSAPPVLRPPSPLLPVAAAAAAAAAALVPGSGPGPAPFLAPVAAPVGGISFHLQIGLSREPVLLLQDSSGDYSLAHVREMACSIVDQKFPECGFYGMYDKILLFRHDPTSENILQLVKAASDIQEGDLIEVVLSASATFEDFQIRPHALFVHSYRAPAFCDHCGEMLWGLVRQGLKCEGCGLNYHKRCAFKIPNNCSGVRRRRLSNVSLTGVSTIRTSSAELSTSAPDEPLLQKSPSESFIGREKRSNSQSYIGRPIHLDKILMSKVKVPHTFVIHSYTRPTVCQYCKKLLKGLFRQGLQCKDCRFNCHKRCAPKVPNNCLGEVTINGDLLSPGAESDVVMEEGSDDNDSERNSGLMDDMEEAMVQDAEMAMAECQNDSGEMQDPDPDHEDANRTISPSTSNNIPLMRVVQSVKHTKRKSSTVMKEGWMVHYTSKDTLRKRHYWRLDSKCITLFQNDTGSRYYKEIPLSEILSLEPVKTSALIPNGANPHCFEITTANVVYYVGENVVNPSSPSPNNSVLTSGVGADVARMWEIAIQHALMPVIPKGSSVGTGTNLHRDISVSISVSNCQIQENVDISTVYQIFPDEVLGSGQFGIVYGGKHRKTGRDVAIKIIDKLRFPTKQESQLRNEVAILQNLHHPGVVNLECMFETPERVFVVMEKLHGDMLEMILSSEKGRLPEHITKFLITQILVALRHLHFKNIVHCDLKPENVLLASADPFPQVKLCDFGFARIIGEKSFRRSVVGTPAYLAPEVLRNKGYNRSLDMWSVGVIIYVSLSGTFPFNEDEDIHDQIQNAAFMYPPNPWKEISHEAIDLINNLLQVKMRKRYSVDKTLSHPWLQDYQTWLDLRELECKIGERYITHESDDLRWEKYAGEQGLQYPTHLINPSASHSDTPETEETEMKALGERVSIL
For the molecule `C/C(=N\Nc1ncc(Cl)cc1Cl)c1ccccn1`, the IC50 is 9.31 µM.
In the case of `Clc1cncc(Cl)c1N/N=C/c1ccncc1`, the concentration for half-maximal inhibition (IC50) was 9.61 µM.

The same test, now with this note: inhibition, at 50 µM, stronger effect = higher value.
For `O=C1CSCN1c1cc(Cl)ccc1Cl`, the inhibition came out at 1.32%.
Same read-out and setting: the same measure for `CCOC(=O)c1sc(=NC(=O)CCS(=O)(=O)c2ccccc2)n(C)c1C`: -2.41%; for `O=C(CSc1ccncc1)Nc1ccc2ccccc2c1`: -4.61%.
The same measure, in the same setting: the figure for `COC(=O)c1c(NC(=O)C2C3CCC(C3)C2C(=O)O)sc2c1CCCCC2` (stereo unspecified) is 7.89%.
Same read-out and setting: the figure for `O=C(Nc1ccccc1C(=O)N1CCCC1)C1COc2ccccc2O1` (stereo unspecified) is 1.87%; for `Cc1c(C#N)c(N)nc(Cl)c1C#N` it is 5.41%.
On to `CCC1=NNc2cccc3c(OC)ccc1c23`, for which the inhibition was determined as 67%.
On the same count and under the same terms, the figure for `Nc1nc2ccc([N+](=O)[O-])c(N)c2s1` is 95.9%; for `CCC(=O)Nc1c2c(nn1-c1ccccc1C)CSC2` it is -1.23%; for `NC(N)=NC(=O)c1nc(Cl)c(N)nc1N` it is 96.6%.
The same measure, in the same setting: the same measure for `CSc1ccccc1C(=O)NCc1ccc(F)cc1`: 1.94%; for `NC(=O)c1cn(C2OC(CO)C(O)C2O)c2ncnc(N)c12` (stereo unspecified): 102%.
Same read-out and setting: the figure for `CC(=O)Oc1cc(OC(C)=O)c2c(C)cc(=O)oc2c1` is 29%; for `CCCc1cc(=O)[nH]c(SCCCCN2C(=O)c3ccccc3C2=O)n1` it is 0.534%.
For the molecule `C/C(=N\Nc1ncc(Cl)cc1Cl)c1ccccn1`, the inhibition is 65.6%.
Consider `Clc1cncc(Cl)c1N/N=C/c1ccncc1`, for which the inhibition was 83.8%.
On the same count and under the same terms, the figure for `O=C(O)c1cc(C(=O)C2CCCCC2)c[nH]1` is 3.08%; for `Cc1cc(NC(=O)CCC(=O)N(Cc2ccco2)C(C(=O)NCC2CCCO2)c2ccncc2)no1` (stereo unspecified) it is -0.875%.
Still for that read-out and setting: the figure for `O=[N+]([O-])c1ccc(Nc2c3ccccc3nc3ccccc23)cc1` is -1.2%; for `COc1ccc(Cn2c(=O)[nH]c3cc(C(=O)NC4CCCC4)ccc3c2=O)cc1` it is 14.8%; for `CS(=O)(=O)N1CCN(c2ccccc2NC(=O)c2ccc(Br)o2)CC1` it is 15.2%.
On the same count and under the same terms, the same measure for `CC1Cc2ccccc2N1c1ncnc(N)c1[N+](=O)[O-]` (stereo unspecified): 76.8%; for `O=C(NNC1=Nc2cccc3cccc1c23)c1ccc(Br)cc1`: -3.67%.
Consider `O=C(CSc1ccc2nnc(-c3cccnc3)n2n1)c1ccccc1`, for which the inhibition was -0.442%.
The same measure, in the same setting: the same measure for `Cn1cccc1C(=O)NC(=O)COC(=O)c1cc(S(=O)(=O)N2CCCCC2)ccc1Cl`: -3.91%; for `O=C1NCCCc2c1oc1ccc(O)cc21`: 101%.
Still for that read-out and setting: the figure for `COc1ccc(CNC(=O)C2Cc3ccccc3CN2C(=O)c2ccco2)cc1` (stereo unspecified) is 9.09%; for `Cc1cc(NCCCN)nc(-c2ccccc2O)n1` it is 94.4%; for `O=C(Nc1ccc(CN2CCOCC2)cc1)c1ccc(-c2cccc(Cl)c2)o1` it is 96.2%.

As a reminder, the IC50 is the point on the concentration scale where inhibition reaches its midpoint. For orientation: inhibition means the change of the read-out against control, counted positive when it falls.

Source of the values: PubChem BioAssay AID1408 (University of Pittsburgh Molecular Library Screening Center, 2008).
